For 2 molecules, Activity and inhibition results are on record in ChEMBL document CHEMBL5053549, “Discovery of Potent and Novel Dual PARP/BRD4 Inhibitors for Efficient Treatment of Pancreatic Cancer” (J Med Chem, 2021).

Calls of active or inactive are those of the source. No cut-off for these calls is given here.

Assay [1] relates to SW1990. Kind of assay: Effect on cell cycle progression in human SW1990 cells assessed as reduction in Olaparib-induced CDK6 expression at 1 uM after 4 days in presence of Olaparib by Western blot analysis. Format: functional, cell-based. As to conditions: time 4.0 day. For orientation: Immunoblotting shows a protein as a band on a membrane.
Assay [2] concerns SW1990. Kind of assay: Inhibition of homologous recombinant repair in human SW1990 cells assessed as reduction in Olaparib-induced FOXM1 expression at 1 uM after 4 days in presence of Olaparib by Western blot analysis. Format: functional, cell-based. The conditions noted are these: time 4.0 day.
Assay [3] has as its system SW1990. Kind of assay: Induction of apoptosis in human SW1990 cells assessed as necrotic cells at 1 uM after 4 days in presence of 3 uM Olaparib by Annexin V-FITC and propidium iodide staining based flow cytometry (reference value: 1.89%). As to conditions: time 4 day. Format: functional. (In general: Flow cytometry measures light scatter and fluorescence of single cells or particles in a stream.)

In assay [4] the test system is SW1990. Nature of the assay: Induction of cell cycle arrest in human SW1990 cells assessed as accumulation of cells at S phase at 2 uM incubated for 4 days by propidium iodide staining based flow cytometry (reference value: 29.32%). Format: functional. The conditions noted are these: time 4 day.
The test system of assay [5] is Mus musculus. Nature of the assay: Inhibition of homologous recombinant repair in human SW1990 cells xenografted in BALB/c mouse assessed as increase in gammaH2AX expression at 45 mg/kg, ip after 4 days by immunohistochemical analysis. As to conditions: time 4.0 day. Format: functional, organism-based.

Regarding `Cc1sc2c(c1C)C(c1ccc(Cl)cc1)=N[C@@H](CC(=O)OC(C)(C)C)c1nnc(C)n1-2`, in assay [1], the outcome was Active. The inhibition entry in assay [2] was “Active”. Also, in assay [3], the Activity is listed as 5.53%.

Take `CC[C@@H]1C(=O)N(C)c2cnc(N(C)c3ccc(-c4nc5c(C(N)=O)cccc5[nH]4)cc3OC)nc2N1C1CCCC1`: the Activity in assay [4] came to 9.21%. In addition, in assay [5], the inhibition result was “Active”.
